The values below are quoted from earlier work in patent US8097423B2, “MN/CA IX and breast cancer therapy” (Institute of Virology, priority 2008, dated 2012).

What is called pKa is the pH at which an ionisable group is half protonated.

The conditions of series [1]: Phase I and II clinical trials.
For series [2] the following is noted: weak basic drug.
The subject of the next series is T2-4 N0-1 breast cancer. The following applies: breast cancer patients, primary systemic treatment, four cycles before surgery; no significant difference between arms.

In the case of Rencarex®: an MN-specific drug, the “tolerability / drug-related side effects” value in series [1] is recorded as “well-tolerated, with no serious drug-related side effects”. For the molecule `CC/C(=C(\c1ccccc1)c1ccc(OCCN(C)C)cc1)c1ccccc1` [Tamoxifen, tamoxifen], the pKa in series [2] was 8.8. As to `COc1cccc2c1C(=O)c1c(O)c3c(c(O)c1C2=O)C[C@@](O)(C(=O)CO)C[C@@H]3O[C@H]1C[C@H](N)[C@@H](O)[C@H](C)O1` [epirubicin], the treatment responses in the series on T2-4 N0-1 breast cancer was 76%.
